US7776862B2, “Pyridyl and phenyl substituted piperazine-piperidines with CXCR3 antagonist activity” (Schering Corporation, priority 2005, dated 2010)

Target: T1, human CXCR3 (N-delta 4) (Homo sapiens, UniProt P49682)
T1 construct: CD8 leader; Flag tag; expressed in transfected cells; membranes used
T1 sequence (P49682 5-368 limits assumed): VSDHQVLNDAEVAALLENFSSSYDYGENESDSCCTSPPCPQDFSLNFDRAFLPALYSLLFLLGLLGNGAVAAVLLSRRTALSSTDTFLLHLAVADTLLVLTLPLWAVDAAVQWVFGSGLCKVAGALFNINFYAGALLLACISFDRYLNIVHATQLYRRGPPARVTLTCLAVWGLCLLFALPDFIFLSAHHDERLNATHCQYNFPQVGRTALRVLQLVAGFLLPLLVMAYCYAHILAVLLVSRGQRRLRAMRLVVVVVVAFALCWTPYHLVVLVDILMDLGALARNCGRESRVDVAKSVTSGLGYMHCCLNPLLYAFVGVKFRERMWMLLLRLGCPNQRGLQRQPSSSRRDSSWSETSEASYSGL
Assay: Human CXCR3 (N-delta 4) scintillation proximity assay (SPA), [125I] IP-10 binding
Settings: IC50 rating; Ba/F3-hCXCR3 (N-delta 4) membranes, 25 pM [125I] IP-10
Text: The inventive compounds can readily be evaluated to determine activity at the CXCR3 receptors by known methods, such as, for example, development of a human CXCR3 (N-delta 4) Binding Assay.
Cloning and expression of human CXCR3 (N-delta 4):
The DNA encoding human CXCR3 was cloned by PCR using human genomic DNA (Promega, Madison, Wis.) as a template. The PCR primers were designed based on the published sequence of human orphan receptor GPR9 (1) with incorporated restriction sites, a Kozak consensus sequence, CD8 leader and Flag tag. The PCR product was subcloned into the mammalian expression vector pME18Sneo, a derivative of the SR-alpha expression vector (designated as pME18Sneo-hCXCR3 (N-delta 4).
IL-3-dependent mouse pro-B cells Ba/F3 were transfected by electroporation in 0.4 ml Dulbecco's PBS containing 4×10^6 cells with 20 μg of pME18Sneo-hCXCR3 (N-delta 4) plasmid DNA. Cells were pulsed at 400 Volts, 100 OHMs, 960 μFd. The transfected cells were under selection with 1 mg/ml G418 (Life Technologies, Gaithersburg, Md.). […] IP-10 (NEN Life Science Products, Boston, Mass.).
Preparation of Ba/F3-hCXCR3 (N-delta 4) membranes:
Ba/F3 cells expressing human CXCR3 (N-delta 4) were pelleted and resuspended in the lysis buffer containing 10 mM HEPES, pH 7.5 and Complete® protease inhibitors (1 tablet per 100 ml) (Boehringer Mannheim, Indianapolis, Ind.) at a cell density of 20×10^6 cells per ml. […] Large cellular debris was removed by centrifugation at 1,000×g. Cell membrane in the supernatant was sedimented at 100,000×g. The membrane was resuspended in the lysis buffer supplemented with 10% sucrose and stored at −80° C. Total protein concentration of the membrane was determined by BCA method from Pierce (Rockford, Ill.).
Human CXCR3 (N-delta 4) scintillation proximity assay (SPA):
The beads were spun down, washed once, resuspended in the binding buffer and transferred to a 96-well Isoplate (Wallac, Gaithersburg, Md.). […] IP-10 with tested compounds in a series of titration were added to start the reaction.

Structure (SMILES)	IC50 [nM]
CC[C@H]1CN(c2ncc(C(=O)NC)cc2Cl)CCN1C1CCN(Cc2ccc(Cl)cc2)CC1 [compound 223]	< 25
N#Cc1ccc(C(=O)N2CCC(N3CCN(c4ncc(C(=O)NCc5ccc(F)cc5)cc4Cl)CC3)CC2)cc1 [compound 19]	> 100
CC[C@H]1CN(c2ncc(CNS(=O)(=O)C(F)(F)F)cc2Cl)CCN1C1CCN(Cc2ccc(Cl)cc2F)CC1 [compound 443]	> 100
O=C(NCc1ccc(C(F)(F)F)cc1)c1cnc(N2CCN(C3CCN(Cc4ccc([N+](=O)[O-])cc4)CC3)CC2)c(Cl)c1 [compound 98]	25 to 100
CC1CN(c2ncc(C(=O)NCc3ccc(F)c(F)c3)cc2Cl)CCN1C1CCN(Cc2ccc(Cl)cc2)CC1 (stereo not shown) [compound 188]	25 to 100
C[C@@H]1CN(c2ncc(C(=O)NCc3ccc(F)c(F)c3)cc2Cl)CCN1C1CCN(Cc2ccc(C#N)cc2)CC1 [compound 270]	25 to 100
Cc1ccc(CN2CCC(N3CCN(c4ncc(C(=O)NCc5ccc(Cl)c(Cl)c5)cc4Cl)CC3)CC2)cc1 [compound 183]	> 100
CC[C@H]1CN(c2ncc(CO)cc2Cl)CCN1C1CCN(C(=O)c2ccccc2)CC1 [compound 448]	> 100
O=C(NCc1ccc(Cl)cc1)c1cnc(N2CCN(C3CCN(Cc4ccc(Cl)cc4)CC3)CC2)c(Cl)c1 [compound 288]	25 to 100
O=C(NCc1ccccc1)c1cnc(N2CCN(C3CCN(Cc4ccc(Cl)c(F)c4)CC3)CC2)c(Cl)c1 [compound 71]	> 100
CC[C@H]1CN(c2ncc(CN(C(=O)Nc3c(C)noc3C)C(=O)Nc3c(C)noc3C)cc2Cl)CCN1C1CCN(Cc2ccc(Cl)cc2F)CC1 [compound 445]	> 100
CC1CN(c2ncc(C(=O)NCc3ccc(F)c(F)c3)cc2Cl)CCN1C1CCN(Cc2ccc([N+](=O)[O-])cc2)CC1 (stereo not shown) [compound 187]	< 25
N#Cc1ccc(C(=O)N2CCC(N3CCN(c4ncc(C(=O)NCCOc5ccccc5)cc4Br)CC3)CC2)cc1 [compound 329]	> 100
Cc1cc(C(=O)NCC2CCCCC2)cnc1N1CCN(C2CCN(Cc3ccc(Cl)cc3)CC2)CC1 [compound 203]	> 100
CC[C@H]1CN(c2ncc(CNC(=O)N(C(=O)NC3CC3)C3CC3)cc2Cl)CCN1C1CCN(Cc2ccc(Br)cc2F)CC1 [compound 408]	< 25
CNC(=O)c1cnc(N2CCN(C3CCN(Cc4ccc(F)cc4Cl)CC3)[C@@H](C)C2)c(Cl)c1 [compound 299]	25 to 100
CC[C@H]1CN(c2ncc(C(N)=O)cc2Cl)CCN1C1CCN(C(=O)c2ccc(Cl)cc2N2CCOC2=O)CC1 [compound 146]	25 to 100
CNC(=O)c1cnc(N2CCN(C3CCN([C@@H](C)c4ccc(Cl)cc4)CC3)[C@@H](C)C2)c(Cl)c1 [compound 328]	> 100
CCNC(=O)NCc1cnc(N2CCN(C3CCN(Cc4ccc(Cl)cc4)CC3)[C@@H](CC)C2)c(Cl)c1 [compound 397]	< 25
CC[C@H]1CN(c2ncc(C(=O)NC)c(N)c2Cl)CCN1C1CCN(Cc2ccc(Cl)cc2F)CC1 [compound 316]	25 to 100
O=C(NCc1ccc(Cl)cc1F)c1cnc(N2CCN(C3CCN(Cc4ccc(Cl)c(F)c4)CC3)CC2)c(Cl)c1 [compound 93]	> 100
CC[C@H]1CN(c2ncc(CNC(N)=O)cc2Cl)CCN1C1CCN(Cc2ccc(Br)cc2F)CC1 [compound 376]	< 25
C[C@H]1CN(c2ncc(C(=O)NCC3CCCCC3)cc2Cl)CCN1C1CCN(Cc2ccc(Cl)cc2)CC1 [compound 228]	< 25
C[C@H]1CN(c2ccc(C(=O)NCc3ccc(F)c(F)c3)cc2Cl)CCN1C1(C)CCN(Cc2ccc(Cl)cc2)CC1 [compound 204]	25 to 100
O=C(NCCOc1ccccc1)c1cnc(N2CCN(C3CCN(Cc4ccc(F)cc4F)CC3)CC2)c(Cl)c1 [compound 16]	> 100
CC[C@H]1CN(c2ncc(C(=O)NC)cc2Cl)CCN1C1CCN(C(=O)c2ccc(Br)cc2)CC1 [compound 245]	< 25
O=C(NCc1ccc(Cl)cc1F)c1cnc(N2CCN(C3CCN(Cc4ccc(Cl)cc4)CC3)CC2)c(Cl)c1 [compound 125]	25 to 100

Further lines, results first:

IC50 [nM]	Structure (SMILES)
> 100	O=C(NCc1ccc(C(F)(F)F)cc1)c1cnc(N2CCN(C3CCN(Cc4ccc(Br)cc4)CC3)CC2)c(Br)c1 [compound 325]
25 to 100	O=C(NCc1ccc(Cl)c(Cl)c1)c1cnc(N2CCN(C3CCN(Cc4ccc(Cl)c(F)c4)CC3)CC2)c(Cl)c1 [compound 115]
> 100	O=C(NCc1ccc(Cl)cc1)c1cnc(N2CCN(C3CCN(Cc4ccc(Br)cc4F)CC3)CC2)c(Cl)c1 [compound 48]
25 to 100	O=C(NCc1ccc(F)cc1F)c1cnc(N2CCN(C3CCN(Cc4ccc([N+](=O)[O-])cc4)CC3)CC2)c(Cl)c1 [compound 128]
> 100	CC[C@H]1CN(c2ncc(C(=O)NNC(N)=O)cc2Cl)CCN1C1CCN(Cc2ccc(Cl)cc2F)CC1 [compound 347]
25 to 100	O=C(NCc1ccc(F)cc1F)c1cnc(N2CCN(C3CCN(Cc4ccc(Cl)cc4)CC3)CC2)c(Cl)c1 [compound 97]
< 25	CCNC(=O)c1cnc(N2C[C@H](CC)N(C3CCN(C(=O)c4ccc(Cl)cc4)CC3)C[C@H]2C)c(Cl)c1 [compound 256]
25 to 100	O=C(NCc1ccc(Cl)cc1)c1cnc(N2CCN(C3CCN(Cc4ccc([N+](=O)[O-])cc4)CC3)CC2)c(Cl)c1 [compound 153]
> 100	O=C(NCc1ccc(F)cc1F)c1cnc(N2CCN(C3CCN(Cc4ccc(Cl)cc4Cl)CC3)CC2)c(Cl)c1 [compound 10]
> 100	N#Cc1ccc(CN2CCC(N3CCN(c4ncc(C(=O)NCc5cccc(Cl)c5)cc4Cl)CC3)CC2)cc1 [compound 47]
< 25	CCNC(=O)c1cnc(N2C[C@H](CC)N(C3CCN(Cc4ccc(Cl)cc4F)CC3)C[C@H]2C)c(Cl)c1 [compound 217]
25 to 100	C[C@H]1CN(c2ncc(C(=O)NCc3ccc(F)c(F)c3)cc2Cl)CCN1C1CCN(C(=O)c2ccc(Cl)cc2)CC1 [compound 307]
< 25	CCNC(=O)c1cc(Cl)c(N2CCN(C3CCN(Cc4ccc(Cl)cc4F)CC3)[C@@H](CC)C2)[n+]([O-])c1 [compound 229]
< 25	C[C@@H]1CN(c2ncc(C(=O)NCC3CCCCC3)cc2Cl)CCN1C1CCN(Cc2ccc(C#N)cc2)CC1 [compound 235]
25 to 100	CNC(=O)c1cnc(N2CCN(C3CCN(Cc4ccc(Cl)cc4)C(C)C3)[C@@H](C)C2)c(Cl)c1 (stereo partly shown) [compound 159]
> 100	N#Cc1ccc(CN2CCC(N3CCN(c4ncc(C(=O)NCCOc5ccccc5)cc4Cl)CC3)CC2)cc1 [compound 338]
25 to 100	CC[C@H]1CN(c2ncc(C(=O)NCCO)cc2Cl)CCN1C1CCN(C(C(=O)OC)c2ccc(Cl)cc2)CC1 (stereo partly shown) [compound 274]
< 25	CC[C@H]1CN(c2ncc(CNc3nccs3)cc2Cl)CCN1C1CCN(Cc2ccc(Cl)cc2F)CC1 [compound 407]
25 to 100	O=C(NCc1ccc(F)c(F)c1)c1cnc(N2CCN(C3CCN(Cc4ccc(F)cc4F)CC3)CC2)c(Cl)c1 [compound 96]
< 25	CC[C@H]1CN(c2ncc(CNC(=N)N)cc2Cl)CCN1C1CCN(Cc2ccc(Cl)cc2F)CC1 [compound 394]
25 to 100	CC[C@H]1CN(c2ncc(C(=O)NCCN)cc2Cl)CCN1C1CCN(Cc2ccc(Cl)cc2F)CC1 [compound 306]
> 100	CC[C@H]1CN(c2ncc(C(=O)O)cc2Cl)CCN1C1CCN(Cc2ccc(Cl)cc2F)CC1 [compound 436]
25 to 100	O=C(NCCOc1ccccc1)c1cnc(N2CCN(C3CCN(Cc4ccc(Cl)c(F)c4)CC3)CC2)c(Cl)c1 [compound 123]
> 100	O=C(NCc1ccc(F)cc1)c1cnc(N2CCN(C3CCN(Cc4ccc(F)cc4)CC3)CC2)c(Cl)c1 [compound 55]
> 100	O=C(Nc1ccc(Cl)cn1)c1cnc(N2CCN(C3CCN(Cc4ccc(Cl)cc4)CC3)CC2)c(Cl)c1 [compound 353]
> 100	O=C(NCCOc1ccccc1)c1cnc(N2CCN(C3CCN(Cc4ccc(OC(F)(F)F)cc4)CC3)CC2)c(Cl)c1 [compound 169]
< 25	CC[C@H]1CN(c2ncc(C(=O)NC)cc2Cl)CCN1C1CCN(Cc2ccc(Cl)cc2F)CC1 [compound 224]
> 100	N#Cc1ccc(CN2CCC(N3CCN(c4ncc(C(=O)NCc5cccc(F)c5)cc4Cl)CC3)CC2)cc1 [compound 61]
